According to patent US8058476B2, “HCI polymorphs of 3-((2-(dimethylamino)methyl(cyclohex-1-yl)) phenol” (priority 2005, dated 2011):
“Also recorded” adds a separate entry of the source. Counter-ions that a name gives are not always drawn. Like-named read-outs stand apart in the source and are kept apart here.

Legend:
[1] = Stability in air / chemical stability (description); settings: for stability in air: normal conditions / ambient temperature
[2] = Absorption of water by dynamic vapour sorption (DVS); format: physicochemical; settings: 25° C.; for water content of the sample if the relative air humidity is reduced to 0%: 0% relative air humidity; for water content of the sample if the relative air humidity is reduced to 0% / water content at 50% relative air humidity at the end of the measuring cycle / relative air humidity above which the crystalline form absorbs water very quickly: hydrochloride
Protocol: The absorption of water is ascertained by dynamic vapour sorption (DVS) with a DVS-1 instrument manufactured by Surface Measurement Systems Ltd. The sample is placed in a platinum crucible at the pivot of a microbalance. The sample is then initially equilibrated at 50% relative air humidity and then subjected to a predefined measuring program. The temperature was 25° C. The change in weight of the sample is determined.

[3] = Thermodynamic stability of the crystalline form (description); format: physicochemical; settings: low temperatures
[4] = for sequence of stability at room temperature: conditions for avoiding the formation of solvates, from Examples 8.1 to 8.4; for crystalline form found by Raman spectrum: Example 8.4: forms IV and II together in ethyl acetate
[5] = Hydrate formation in the presence of atmospheric moisture (description); format: physicochemical; settings: for relative air humidity at which hydrates of the crystalline form V are formed: hydrochloride
[6] = Humid storage of the crystalline forms II and III at 25° C. and 60% relative air humidity; format: physicochemical
Protocol: Storage conditions: 25° C. and 60% relative air humidity for 5 hrs, 24 hrs and 7 days
The substances were weighed directly into DSC and TGA crucibles, and these crucibles were stored in a climate chamber.
50 mg of the substances were weighed into 1 ml vials, three times in each case, and these vials were then stored openly in a climate chamber.

[7] = Example 8.1: forms I and II together in ethyl acetate, eleven days, 25° C.
[8] = presence of atmospheric moisture
[9] = 25° C., 60% relative air humidity, 24 hours, second test series
[10] = Example 8.3: forms III and II together in ethyl acetate, three days, 23° C.
[11] = stir-mixing in ethyl acetate, 23° C.

| Structure (SMILES) | water content of the sample if the relative air humidity is reduced to 0% [2] [wt. %] | water content at 50% relative air humidity at the end of the measuring cycle [2] [%] | recorded Raman spectrum at the end of the measuring cycle [2] | relative air humidity above which the crystalline form absorbs water very quickly [2] [%] | crystalline form found by Raman spectrum after stirring [4, 7] | sequence of stability at room temperature [4] | relative air humidity at which hydrates of the crystalline form V are formed [5, 8] [%] | stability in air [1] | water content [6, 9] [%] | crystalline form found by Raman spectrum after stirring [4, 10] | stability in air ([1]; hydrochloride) | other results |
| --- | --- | --- | --- | --- | --- | --- | --- | --- | --- | --- | --- | --- |
| CN(C)CC1CCCCC1c1cccc(O)c1 [Amorphous compounds of the formula (1), (1R,2R)-3-[2-(dimethylamino)-methyl(cyclohex-1-yl)]phenol hydrochloride] | – | – | – | – | – | – | – | – | – | – | – | stability of the amorphous form ([1]; in the presence of moisture tends to form hydrates): not very stable |
| CN(C)C[C@@H]1CCCC[C@H]1c1cccc(O)c1.Cl [crystalline form I, (1R,2R)-3[-2-(dimethylamino)methyl-(cyclohex-1-yl)]phenol hydrochloride] | 3.2 | 7.2 | corresponds to the Raman spectrum of the crystalline form V | > 50 | predominantly contained the crystalline form I and small amounts of form V | I>II>III≈IV | > 50 | – | – | – | – | temperature up to which the form is thermodynamically the most stable form [3]: approximately 40 °C |
| CN(C)C[C@@H]1CCCC[C@H]1c1cccc(O)c1.Cl [crystalline form II, (1R,2R)-3-[2-(dimethylamino)methyl-(cyclohex-1-yl)]phenol hydrochloride] | 3.3 | 7.9 | corresponds to the Raman spectrum of the crystalline form V | > 75 | predominantly contained the crystalline form I and small amounts of form V | I>II>III≈IV | > 70 | stable under normal conditions in air and with exclusion of atmospheric moisture | 6.08 | only bands of the crystalline form II are measured | – | chemical stability [1]: good chemical stability; water absorbed ([6]; 25° C., 60% relative air humidity, 5 hours, first test series (DSC and TGA crucibles), listed as modification II, hydrochloride): 0.04%; water absorbed ([6]; 25° C., 60% relative air humidity, 5 hours, second test series (50 mg in open 1 ml vials), listed as modification II, hydrochloride): 0.12%; water absorbed ([6]; 25° C., 60% relative air humidity, 24 hours, first test series, listed as modification II, hydrochloride): 3.28%; water-absorption behavior ([6]; 25° C., 60% relative air humidity, both test series): absorbs water more slowly in both tests than modification III; water content ([6]; 25° C., 60% relative air humidity, one week, first test series, listed as modification II, hydrochloride): 7.03%; water content ([6]; 25° C., 60% relative air humidity, one week, second test series, listed as modification II, hydrochloride): 7.04%; proportion of water after storage ([6]; 5 hours of storage at a relative air humidity of 60%): < 0.15 wt. %; crystalline form found by Raman spectrum ([4]; 23° C., after 32 days): almost exclusively the crystalline form I was detected; crystalline form found by Raman spectrum ([4]; 23° C., after the first three days): the first traces of the crystalline form I were detected; crystalline form found by Raman spectrum ([4]; 23° C., initially): only bands of the crystalline form II were measured; time at which a small proportion of the crystalline form I can be detected [4, 11]: after three days of stir-mixing; time until complete conversion into the crystalline form I [4, 11]: 32 days; hygroscopicity ([5]; compared with other crystalline forms): less hygroscopic than the compounds of the crystalline forms I, III and IV; relative air humidity at which hydrates of the crystalline form V are formed (only slowly) [5, 8]: > 70% |
| CN(C)C[C@@H]1CCCC[C@H]1c1cccc(O)c1.Cl [crystalline form III, (1R,2R)-3-[2-(dimethylamino)methyl-(cyclohex-1-yl)]phenol hydrochloride] | 3.1 | 7.8 | corresponds to the Raman spectrum of the crystalline form V | > 55 | – | I>II>III≈IV | > 50 | stable under normal conditions in air and with exclusion of atmospheric moisture | 6.08 | only bands of the crystalline form II are measured | – | water absorbed ([6]; 25° C., 60% relative air humidity, 5 hours, first test series (DSC and TGA crucibles), listed as modification III, hydrochloride): 6.70%; water absorbed ([6]; 25° C., 60% relative air humidity, 5 hours, second test series (50 mg in open 1 ml vials), listed as modification III, hydrochloride): 1.92%; water absorbed ([6]; 25° C., 60% relative air humidity, 24 hours, first test series, listed as modification III, hydrochloride): 6.28%; water content ([6]; 25° C., 60% relative air humidity, one week, first test series, listed as modification III, hydrochloride): 6.74%; water content ([6]; 25° C., 60% relative air humidity, one week, second test series, listed as modification III, hydrochloride): 6.83%; crystalline form found by Raman spectrum after stirring ([4]; Example 8.2: forms III and IV together in ethyl acetate, twelve days, 23° C.): only bands of the crystalline form I were measured |
| CN(C)CC1CCCCC1c1cccc(O)c1 [crystalline form IV, (1R,2R)-3-[2-(dimethylamino)methyl(cyclohex-1-yl)]phenol hydrochloride] | – | – | – | – | – | I>II>III≈IV | – | – | – | – | stable under normal conditions in air and with exclusion of atmospheric moisture | – |
| CN(C)CC1CCCCC1c1cccc(O)c1 [crystalline form V, (1R,2R)-3-[2-(dimethylamino)methyl(cyclohex-1-yl)]phenol hydrochloride] | – | – | – | – | – | – | – | – | – | – | stable in air under normal conditions; also recorded: stable at ambient temperature in air | – |
